Active and inactive are the calls of the source. No cut-off for these calls is given here.
How the values were obtained:
[1] = tested on: Mus musculus; test: Induction of S345 phosphorylation in tumor of mouse xenografted with human HT-29 cells at 30 mg/kg, po dosed 5 days/week for 22 days by Western blot analysis; format: functional, organism-based; details: time 22.0 day
[2] = target: Calcium/calmodulin-dependent protein kinase type II subunit beta (Homo sapiens) (UniProt Q13554); test: Inhibition of wild type human CAMK2B (M1 to Q380 residues) expressed in bacterial expression system assessed as protein activity at 0.5 uM relative to control; design: scale not given: the % may be the effect or the level left
Sequence of Calcium/calmodulin-dependent protein kinase type II subunit beta (Homo sapiens) (Q13554 whole entry, the tested form may be a part): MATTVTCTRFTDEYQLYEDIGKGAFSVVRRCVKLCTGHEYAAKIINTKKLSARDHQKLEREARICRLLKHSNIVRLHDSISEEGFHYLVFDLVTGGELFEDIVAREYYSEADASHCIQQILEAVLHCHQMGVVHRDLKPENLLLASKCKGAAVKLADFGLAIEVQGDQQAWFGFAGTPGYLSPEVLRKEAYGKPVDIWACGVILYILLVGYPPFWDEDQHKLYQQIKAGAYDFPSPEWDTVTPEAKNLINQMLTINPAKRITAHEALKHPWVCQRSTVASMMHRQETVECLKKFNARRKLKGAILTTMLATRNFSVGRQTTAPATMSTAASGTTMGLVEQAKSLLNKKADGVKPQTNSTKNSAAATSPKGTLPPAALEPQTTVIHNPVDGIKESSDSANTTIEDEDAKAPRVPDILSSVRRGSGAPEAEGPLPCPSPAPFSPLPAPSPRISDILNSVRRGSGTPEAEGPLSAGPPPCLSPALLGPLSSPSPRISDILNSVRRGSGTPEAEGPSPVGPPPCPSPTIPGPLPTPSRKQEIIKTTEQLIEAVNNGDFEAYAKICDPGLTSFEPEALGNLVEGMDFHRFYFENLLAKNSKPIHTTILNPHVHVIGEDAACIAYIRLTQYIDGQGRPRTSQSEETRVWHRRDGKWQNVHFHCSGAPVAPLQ

[3] = Selectivity ratio of Antiproliferative activity against human HT-29 cells to Antiproliferative activity against human HT-29 cells in presence of gemcitabine; format: functional
[4] = tested on: Mus musculus; test: Induction of S296 phosphorylation in tumor of mouse xenografted with human HT-29 cells at 30 mg/kg, po dosed 5 days/week for 22 days cotreated with gemcitabine by Western blot analysis; format: functional, organism-based; details: time 22.0 day
[5] = tested on: A549; test: Antiproliferative activity against human A549 cells incubated for 72 hrs by CCK8 assay; format: functional, cell-based
[6] = target: T1, Serine/threonine-protein kinase Chk1 (Homo sapiens) (UniProt O14757); test: Inhibition of CHK1 in human HT-29 cells assessed as […] residue at 0.12 to 3.3 uM incubated for 12 hrs in presence of gemcitabine by Western blot analysis; format: cell-based; details: dose 0.12-3.3 µM
T1 sequence (whole entry): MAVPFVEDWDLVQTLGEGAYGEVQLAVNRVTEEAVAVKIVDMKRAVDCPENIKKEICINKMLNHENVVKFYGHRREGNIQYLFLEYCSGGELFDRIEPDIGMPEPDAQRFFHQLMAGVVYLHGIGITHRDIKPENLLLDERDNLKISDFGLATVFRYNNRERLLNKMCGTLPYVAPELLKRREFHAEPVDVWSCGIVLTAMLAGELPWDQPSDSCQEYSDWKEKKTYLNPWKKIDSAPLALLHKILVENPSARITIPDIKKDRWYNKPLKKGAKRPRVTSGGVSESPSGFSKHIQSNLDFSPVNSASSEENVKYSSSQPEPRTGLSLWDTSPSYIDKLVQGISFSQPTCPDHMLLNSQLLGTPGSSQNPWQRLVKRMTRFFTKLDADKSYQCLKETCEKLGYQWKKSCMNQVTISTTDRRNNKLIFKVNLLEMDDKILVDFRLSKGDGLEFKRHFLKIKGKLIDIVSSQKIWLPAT

[7] = tested on: RPMI-8226; test: Antiproliferative activity against human RPMI-8226 cells incubated for 72 hrs by CCK8 assay; format: functional, cell-based
[8] = tested on: HT-29; test: Induction of gamma-H2A.X in human HT-29 cells at 0.12 to 3.3 uM incubated for 12 hrs in presence of gemcitabine by Western blot analysis; format: functional, cell-based; details: dose 0.12-3.3 µM
[9] = target: T1, Serine/threonine-protein kinase Chk1 (Homo sapiens); test: Inhibition of CHK1 in human MV4-11 cells assessed as increase in phosphorylation at S345 residue incubated for 2 hrs by Western blot analysis; format: cell-based
[10] = tested on: HT-29; test: Antiproliferative activity against human HT-29 cells incubated for 72 hrs by CCK8 assay; format: functional, cell-based
[11] = AUC (0 to infinity) in ICR mouse at 20 mg/kg, po measured after 0.083 to 48 hrs by LC-MS/MS analysis; format: ADME, organism-based; design: route oral, time upper 48 hrs, time lower 0.083 hrs, dose 20 mg/kg; details: in vivo
[12] = target: Ribosomal protein S6 kinase alpha-2 (Homo sapiens) (UniProt Q15349); test: Inhibition of wild type human RSK3 expressed in bacterial expression system assessed as protein activity at 0.5 uM relative to control; design: scale not given: the % may be the effect or the level left
Sequence of Ribosomal protein S6 kinase alpha-2 (Homo sapiens) (Q15349 whole entry): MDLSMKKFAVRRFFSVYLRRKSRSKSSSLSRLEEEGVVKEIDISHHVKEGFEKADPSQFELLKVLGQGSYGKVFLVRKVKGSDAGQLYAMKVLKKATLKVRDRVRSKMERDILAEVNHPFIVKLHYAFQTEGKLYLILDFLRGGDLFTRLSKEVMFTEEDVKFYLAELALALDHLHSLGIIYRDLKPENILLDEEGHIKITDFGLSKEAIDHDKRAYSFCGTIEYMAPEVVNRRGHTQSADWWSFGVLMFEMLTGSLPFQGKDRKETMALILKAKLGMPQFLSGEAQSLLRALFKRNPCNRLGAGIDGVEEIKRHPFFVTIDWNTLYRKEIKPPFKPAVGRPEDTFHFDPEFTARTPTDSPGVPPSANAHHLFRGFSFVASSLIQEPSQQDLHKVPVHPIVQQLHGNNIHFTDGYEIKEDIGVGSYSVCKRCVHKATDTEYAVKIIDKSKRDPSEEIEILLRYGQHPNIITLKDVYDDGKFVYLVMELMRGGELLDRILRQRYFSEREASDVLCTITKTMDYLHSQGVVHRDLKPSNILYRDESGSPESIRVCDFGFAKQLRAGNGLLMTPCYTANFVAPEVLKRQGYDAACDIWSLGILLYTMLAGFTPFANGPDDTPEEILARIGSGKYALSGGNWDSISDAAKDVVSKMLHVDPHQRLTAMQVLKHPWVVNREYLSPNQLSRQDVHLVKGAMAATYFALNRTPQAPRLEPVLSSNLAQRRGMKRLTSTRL

[13] = target: T1, Serine/threonine-protein kinase Chk1 (Homo sapiens); test: Inhibition of CHK1 in human MV4-11 cells assessed as reduction in autophosphorylation at S296 residue incubated for 2 hrs by Western blot analysis; format: cell-based
[14] = tested on: Mus musculus; test: Downregulation of S296 phosphorylation in tumor of mouse xenografted with human HT-29 cells at 30 mg/kg, po dosed 5 days/week for 22 days cotreated with gemcitabine by Western blot analysis; format: functional, organism-based; details: time 22.0 day
[15] = tested on: MV4-11; test: Antitumor activity against human MV4-11 cells xenografted in mouse assessed as inhibition of tumor growth at 15 mg/kg, po dosed for 21 days measured twice every week relative to control; format: functional; details: MV4-11, po, 504 h, time 21 day, read-out: TGI
[16] = tested on: HT-29; test: Antitumor activity against human HT-29 cells xenografted in mouse assessed as reduction in tumor growth by measuring T/C ratio at 30 mg/kg, po dosed 5 days/week for 22 days measured twice every week; format: functional; details: time 22 day

Activity [2]: 18%
Activity [6]: Active
Activity [9]: Dose-Dependent Effect
AUC(0-inf) [11]: 22700 ng·h/mL
Activity [12]: 14%
inhibition [13]: Dose-Dependent Effect
SMILES: CC(C)(N)CCNc1nc(Nc2ccc(C#N)nc2)ncc1C(F)(F)F
Activity [1]: Active
Ratio [3]: 100
Activity [4]: Active
Activity [5]: Active
Activity [7]: Active
Activity [8]: Active
Activity [10]: Active
Activity [14]: Active
inhibition in vivo at 15 mg/kg [15]: 95.5%
T/C [16]: 69.05%
